Measured values published in patent publication US20140045807A2, “THE USE OF 3-METHOXY-PREGNENOLONE FOR THE PREPARATION OF A DRUG FOR TREATING A TRAUMATIC BRAIN INJURY” (priority 2004, published 2014).

Legend:
[1] = tested on: transgenic mice expressing the longest human tau protein isoform; experiment: RotaRod test in transgenic mice expressing the longest human tau protein isoform; type: in vivo, mouse; conditions: subcutaneous implant releasing 0.38 mg of steroid per day for 90 days
Description: FIG. 8: Effect of molecule 43B on the motor incoordination of transgenic mice expressing the longest isoform of human tau protein in their neurons. […] The maximum speed of rotation of the RotaRod drum before the […] falls is a measurement of motor coordination (higher values correspond to a better treatment effect).
In order to evaluate the therapeutic potential of 43B to treat Alzheimer-type neurodegenerative diseases, a homozygous transgenic line of mice, such as described by Götz (EMBO J. 1995; 14(7):1304-13), can be used.
These mice express the longest human tau protein isoform. They present symptoms of neurological dysfunction expressed as muscular weakness and a reduction in motor coordination which correlate histologically with the appearance of abnormal neurites and hyperphosphorylated tau proteins as is seen in Alzheimer's disease. This pathological phosphorylation decreases the affinity of tau for microtubules and favors its aggregation.
A breeding program was undertaken at Bicêtre and genotyping made it possible to select mice homozygous for the transgene. […] These implants released 0.38 mg of steroid per day for 90 days. The progression of motor incoordination was followed by repeated RotaRod tests.

[2] = target: T1, human progesterone receptor(PR) (Homo sapiens, UniProt P06401); experiment: Test of progesterone receptor antagonist activity (luciferase transactivation, HEK293T); type: cell-based; conditions: with progesterone (1 nM), increasing amounts
T1 construct: expressed in transfected cells; host or cells: HEK293T
T1 sequence (P06401 1-933): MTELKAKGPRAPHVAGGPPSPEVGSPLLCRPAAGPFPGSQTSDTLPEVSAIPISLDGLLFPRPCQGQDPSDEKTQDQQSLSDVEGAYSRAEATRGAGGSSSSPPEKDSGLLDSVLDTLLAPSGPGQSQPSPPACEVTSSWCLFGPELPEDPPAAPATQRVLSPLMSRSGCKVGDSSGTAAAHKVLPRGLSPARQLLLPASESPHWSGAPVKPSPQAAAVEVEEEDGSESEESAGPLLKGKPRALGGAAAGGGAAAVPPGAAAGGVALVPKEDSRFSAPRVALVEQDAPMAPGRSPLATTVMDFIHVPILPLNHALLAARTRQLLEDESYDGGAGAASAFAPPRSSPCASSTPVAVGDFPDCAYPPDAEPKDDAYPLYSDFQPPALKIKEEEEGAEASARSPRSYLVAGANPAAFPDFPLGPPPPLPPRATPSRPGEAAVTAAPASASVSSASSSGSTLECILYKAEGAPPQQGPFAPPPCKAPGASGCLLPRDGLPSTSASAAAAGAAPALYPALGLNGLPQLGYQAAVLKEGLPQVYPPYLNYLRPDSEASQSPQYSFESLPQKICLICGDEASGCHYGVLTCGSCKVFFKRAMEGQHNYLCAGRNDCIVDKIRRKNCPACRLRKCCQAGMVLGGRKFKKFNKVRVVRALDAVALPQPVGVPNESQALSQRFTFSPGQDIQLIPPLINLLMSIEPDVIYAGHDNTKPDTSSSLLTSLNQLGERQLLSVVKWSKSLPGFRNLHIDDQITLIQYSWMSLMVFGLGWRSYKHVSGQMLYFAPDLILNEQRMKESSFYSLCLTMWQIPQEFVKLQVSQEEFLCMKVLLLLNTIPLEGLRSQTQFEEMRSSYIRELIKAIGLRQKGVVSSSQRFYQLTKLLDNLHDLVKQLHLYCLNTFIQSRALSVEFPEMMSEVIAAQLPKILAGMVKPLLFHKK
Description: The main experimental setting used is the following: HEK293T cells were transiently transfected, using calcium phosphate precipitation technology, with expression vectors pSG5hPR (which permits expression of human progesterone receptor(PR)), pFC31-luc (contains the luciferase gene under the control of the MMTV promoter, which is in turn activated by binding of a progestin to progesterone receptor) and pcbetagal (which permits expression of betagalactosidase), and cultured during 24 hours with increasing amounts of various compositions: • 1. […] Test of progesterone receptor […] activity: transfected cells were cultured with progesterone (1 nM) and increasing amounts of RU486 (a well-known progesterone receptor antagonist) or 3-methoxy-pregnenolone. • With this setting, a compound with progesterone receptor antagonist activity competes with progesterone for the occupation of progesterone receptor and results in a progressive loss of transactivation activity when the amount of this compound is increased compared to progesterone.

CCI-injured animals = experiment: Histological analysis of the hippocampus size after CCI; type: in vivo, rat; conditions: 10 mg/kg and 20 mg/kg, first injection 2 h after TBI, day 35
Description: FIG. 18: Size of the hippocampus of CCI-injured animals, receiving the first injection of MAP4343 (or vehicle) 2 h after TBI. Data are expressed in percentage of the non-injured hippocampus of Dose 0 (vehicle) animals. ***: p<0.001 Dose 0 injured vs non-injured hippocampus; $: p<0.05 vs Dose 0 injured hippocampus.
CCI was performed with an electromagnetic impact device as described (MyNeurolab, St. Louis, Mo.; Brody et al. 2007). Anesthesized rats were subjected to a single right lateral CCI, with the following parameters: impact centered 4.0 mm anterior to lambda and 4.5 mm […] of midline, within the craniotomy of the animal. The impact was set at a velocity of 4 m/s with a sustained depression of 200 ms, using a 5.0 mm tip.
Frozen sections were stained with cresyl violet. For each section analyzed, the size of the hippocampus was determined by first outlining all remaining tissue of each section taken at 500 μm intervals through the lesion (right hemisphere) or contra lateral hemisphere, thus providing a total tissue area (mm2) of the two hemispheres for each section. Then, the areas of sections were summed per hemisphere.

GAP43 = experiment: Western blot of GAP43 in cortex and hippocampus after CCI; type: in vivo, rat; conditions: first injection 2 h post-trauma, day 35, injured cortex (20 mg/kg only), hippocampus and non-injured cortex (both doses)
Description: FIG. 23: GAP43 expression, 35 days after TBI, in the left-uninjured and right-injured hemispheres (A: cortex and B: hippocampus) of CCI-injured animals, receiving either vehicle (D0) or MAP4343 (D1: 10 mg/kg and D2: 20 mg/kg), 2 h after injury.
Samples were analyzed by Western-blot at day 35 post-trauma (D35) to evaluate the effects of MAP4343 on: MAP2 (the target of MAP4343 and a modulator of microtubule function), the post-synaptic markers PSD95 and spinophilin, the pre-synaptic marker synaptophysin, and the axonal growth/integrity marker GAP43.
Western blot was performed on cortex and hippocampus of TBI-injured animals receiving the first injection of MAP4343 (at 10 mg/kg or 20 mg/kg) or vehicle (sesame oil) 2 h after injury.
The expression level of various neuronal brain markers of plasticity was measured at day 35 post-trauma by western-blots in the cortex and hippocampus of left uninjured and right injured cerebral hemispheres of CCI traumatized animals receiving either vehicle (sesame oil, CCI-D0) or 3-methoxy-PREG (MAP4343) at 10 mg/kg (CCI-D1) or 20 mg/kg (CCI-D2), with first MAP4343 injection 2 h post-trauma.

In the case of `CO[C@H]1CC[C@@]2(C)C(=CC[C@H]3[C@@H]4CC[C@H](C(C)=O)[C@@]4(C)CC[C@@H]32)C1` [3-methoxy-PREG, 3β-methoxy-pregna-5-ene-20-one], the “motor dysfunction (RotaRod)” value [1] is reported as “beneficial effect on motor dysfunction”, the “progesterone receptor antagonist activity” value [2] is reported as “weak progesterone receptor antagonist” and the “size of the injured hippocampus” value (CCI-injured animals) is reported as “significantly increases the size of the injured hippocampus”. For the same molecule, the GAP-43 expression (GAP43) was “increased GAP-43 expression”.
